Laboratory results reported in patent US20240092759A1, “Non-Covalent Inhibitors of the Main Protease of SARS-CoV-2 and Methods of Use” (YALE UNIVERSITY, priority 2021, published 2024).
Values joined by “and” are separate entries in the source; they are usually repeats but may differ in a detail not shown here. Identical values can stand only once. Like-named read-outs stand apart in the source and are kept apart here.

Molecular target: recombinant SARS-Cov-2 M^pro (Severe acute respiratory syndrome coronavirus 2 (2019-nCoV) (SARS-CoV-2), UniProt P0DTD1)
Assay: biochemical
[1] = read-out: IC50 (μM), inhibition of SARS-CoV-2 M^pro, Table 1, 100 nM M^pro, triplicate, perampanel: fluorescence of compound interfered with assay
[2] = read-out: IC50 (μM), inhibition of SARS-Cov-2 M^pro, Table 4
[3] = IC50 (μM), inhibition of SARS-Cov-2 M^pro, Table 4

Molecule `N#Cc1ccccc1-c1cc(-c2cccc(Cl)c2)c(=O)n(-c2cccnc2)c1` [Compound 6, 2-(3-(3-Chlorophenyl)-2-oxo-2H-[1,3′-bipyridin]-5-yl)benzonitrile] has an IC50 (read-out: IC50) of 10 µM and an IC50 [1] of 9.99 ± 2.5 µM.

Molecule `N#Cc1ccccc1-c1cc(-c2cc(Cl)cc(OCCc3ccccc3)c2)c(=O)n(-c2cccnc2)c1` [Compound 17, 2-(3-(3-Chloro-5-phenethoxyphenyl)-2-oxo-2H-[1,3′-bi-pyridin]-5-yl)benzonitrile] has an IC50 (read-out: IC50) of 0.51 µM, an IC50 [1] of 0.51 ± 0.02 µM and an IC50 [2] of 0.51 ± 0.015 µM.

`CCNC(=O)COc1cc(Cl)cc(-c2cc(-c3ccccc3C#N)cn(-c3cccnc3)c2=O)c1` [Compound 33] was tested, and the IC50 [2] was 0.5 to 1 µM.

Work on `COc1cc(CCOc2cc(Cl)cc(-c3cc(-c4ccccc4C#N)cn(-c4cccnc4)c3=O)c2)cc(OC)c1` [Compound 30] yielded an IC50 [2] greater than 1 µM.

Molecule `O=c1[nH]cc(-c2cc(-c3cc(Cl)cc(OCC4CC4)c3)c(=O)n(-c3cccnc3)c2)c(=O)[nH]1` [Compound 40, 5-(3-(3-Chloro-5-(cyclopropylmethoxy)phenyl)-2-oxo-2H-[1,3′-bipyridin]-5-yl)pyrimidine-2,4(1H,3H)-dione] has an IC50 [3] of roughly 290 µM.

With `Cc1ccccc1COc1cc(Cl)cc(-c2cc(-c3c[nH]c(=O)[nH]c3=O)cn(-c3cccnc3)c2=O)c1` [Compound 31, 5-(3-(3-Chloro-5-((2-methylbenzyl)oxy)phenyl)-2-oxo-2H-[1,3′-bipyridin]-5-yl)pyrimidine-2,4(1H,3H)-dione] the IC50 (IC50) was 0.11 µM and the IC50 [1] was 0.1 ± 0.007 µM.

With `Cc1cccc(COc2cc(Cl)cc(-c3cc(-c4c[nH]c(=O)[nH]c4=O)cn(-c4cccnc4)c3=O)c2)c1` [Compound 32, 5-(3-(3-Chloro-5-((3-methylbenzyl)oxy)phenyl)-2-oxo-2H-[1,3′-bipyridin]-5-yl)pyrimidine-2,4(1H,3H)-dione] the IC50 (IC50) was 0.1 µM, the IC50 [1] was 0.11 ± 0.035 µM and the IC50 [2] was 0.11 ± 0.035 µM.

Molecule `COc1cc(Cl)cc(-c2cc(-c3c[nH]c(=O)[nH]c3=O)cn(-c3cccnc3)c2=O)c1` [Compound 18, 5-(3-(3-Chloro-5-methoxyphenyl)-2-oxo-2H-[1,3′-bipyridin]-5-yl)pyrimidine-2,4(1H,3H)-dione] has an IC50 (read-out: IC50) of 1.2 µM, an IC50 [1] of 1.2 ± 0.03 µM and an IC50 [2] of 1.2 ± 0.03 µM.

In the case of `N#Cc1ccccc1-c1cc(-c2ccccn2)cn(-c2ccccc2)c1=O` [Perampanel, perampanel, reference compound], the IC50 (IC50) is reported as 100 to 250 µM and > 100 µM, the IC50 (IC50 (μM), inhibition of SARS-CoV-2 M^pro, Table 1, 100 nM M^pro, triplicate, perampanel: fluorescence of compound interfered with assay) is reported as 100 to 250 µM and the IC50 [3] is reported as 100 µM.

`O=c1[nH]cc(-c2cc(-c3cc(Cl)cc(OCCc4ccccc4)c3)c(=O)n(-c3cccnc3)c2)c(=O)[nH]1` [Compound 29, 5-(3-(3-Chloro-5-phenethoxyphenyl)-2-oxo-2H-[1,3′-bipyridin]-5-yl)pyrimidine-2,4(1H, 3H)-dione] was tested, and the IC50 (read-out: IC50) was 0.11 µM and the IC50 [1] was 0.11 ± 0.013 µM.

In the case of `O=c1[nH]cc(-c2cc(-c3cc(F)c(F)c(OCc4ccccc4F)c3)c(=O)n(-c3cccnc3)c2)c(=O)[nH]1` [Compound 45], the IC50 [2] is reported as 0.03 ± 0.004 µM.

Work on `O=c1[nH]cc(-c2cc(-c3cc(Cl)cc(OCc4ccsc4Cl)c3)c(=O)n(-c3cccnc3)c2)c(=O)[nH]1` [Compound 49] yielded an IC50 [2] of 0.0265 ± 0.004 µM.

`COc1cc(F)cc(-c2cc(-c3c[nH]c(=O)[nH]c3=O)cn(-c3cccnc3)c2=O)c1` [Compound 20] gave an IC50 [2] of 10 to 100 µM.

Molecule `N#Cc1ccccc1-c1cc(-c2cc(Cl)cc(OCc3ccccc3)c2)c(=O)n(-c2cccnc2)c1` [Compound 14, 2-(3-(3-(Benzyloxy)-5-chlorophenyl)-2-oxo-2H-[1,3′-bipyridin]-5-yl)benzonitrile] has an IC50 (read-out: IC50) of 0.28 µM, an IC50 [1] of 0.28 ± 0.05 µM and an IC50 [2] of 0.28 ± 0.05 µM.

`CC(C)CCOc1cc(Cl)cc(-c2cc(-c3c[nH]c(=O)[nH]c3=O)cn(-c3cccnc3)c2=O)c1` [Compound 26, 5-(3-(3-Chloro-5-(isopentyloxy)phenyl)-2-oxo-2H-[1,3′-bipyridin]-5-yl)pyrimidine-2,4(1H, 3H)-dione] showed an IC50 [1] of 0.19 ± 0.03 µM and an IC50 [2] of 0.19 ± 0.026 µM.

`O=c1[nH]cc(-c2cc(-c3cc(Cl)cc(OCC4CC4)c3)c(=O)n(-c3cccnc3)c2)c(=O)[nH]1` [Compound 43] gave an IC50 [2] of 0.037 ± 0.004 µM.
